Laboratory results: patent US20060189591A1, “Five-membered heterocyclic derivative” (DAIICHI PHARMACEUTICAL CO., LTD., priority 2003, published 2006)
Counter-ions that a name gives are not always drawn. Like-named read-outs stand apart in the source and are kept apart here.

What was measured:
[1] = tested on: collagen-induced platelet aggregation; assay: Inhibitory activity for platelet aggregation (collagen-induced, human platelet rich plasma); format: cell-based; settings: human PRP, read-out: Inhibition of collagen-induced platelet aggregation, IC50
Method: Inhibitory Activity for Platelet Aggregation
Human blood was collected in the presence of 3.13% sodium citrate as an anticoagulant in a volume 1/10 the blood volume. The collected blood was centrifuged at 180×g for 10 minutes so as to separate the upper layer; i.e., platelet rich plasma (PRP) from the blood. The remaining lower layer was further centrifuged at 1,600×g for 10 minutes, and platelet poor plasma ([…]); i.e., the thus-obtained upper layer, was collected. A solution (1 μL) of the compound of the Examples was added to PRP (200 μL), and the mixture was allowed to stand at 37° C. for 2 minutes. Subsequently, collagen (2 μL) was added to the resultant mixture so as to induce platelet aggregation. Percentage of platelet aggregation was measured using PAM-12C (SSR Engineering). Optical transmittance of PPP was employed as the value reflecting the state in which 100% aggregation occurred. Percent of platelet aggregation values of PRP were determined at a series of concentrations of each Example compound and IC50 of each compound was calculated.

Cyclooxygenase-1 (COX-1) = target: T1, Cyclooxygenase-1 (COX-1) (Ovis aries, UniProt P05979); assay: COX Inhibitor Screening Assay Kit, COX-1; format: biochemical; settings: 50 μM compound; read-out: Inhibitory effect against COX-1 at 50 μM (% inhibition)
T1 construct: purchased Cayman Chemical Company 560101
T1 sequence (P05979 25-600): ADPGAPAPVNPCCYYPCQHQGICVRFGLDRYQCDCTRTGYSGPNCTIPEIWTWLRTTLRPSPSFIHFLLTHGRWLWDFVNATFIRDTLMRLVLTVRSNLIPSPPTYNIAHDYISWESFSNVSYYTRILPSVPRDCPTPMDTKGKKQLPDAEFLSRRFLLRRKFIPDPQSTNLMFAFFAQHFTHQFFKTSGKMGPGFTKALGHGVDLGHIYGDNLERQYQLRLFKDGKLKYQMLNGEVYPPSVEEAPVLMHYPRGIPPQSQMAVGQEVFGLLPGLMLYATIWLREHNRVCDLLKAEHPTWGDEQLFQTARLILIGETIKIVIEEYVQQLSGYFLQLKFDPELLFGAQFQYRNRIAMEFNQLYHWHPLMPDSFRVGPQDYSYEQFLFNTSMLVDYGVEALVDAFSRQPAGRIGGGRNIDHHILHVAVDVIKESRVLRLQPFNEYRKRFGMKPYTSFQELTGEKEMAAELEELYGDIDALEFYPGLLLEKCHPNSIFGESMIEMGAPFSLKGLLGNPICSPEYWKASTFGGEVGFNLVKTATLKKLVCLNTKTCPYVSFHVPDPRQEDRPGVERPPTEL
Method: (§1) Inhibitory Effects on Cyclooxygenase-1 (COX-1) and Cyclooxygenase-2 (COX-2)
(§2) Inhibitory activity against COX-1 and COX-2 of the compounds produced in the Examples was measured by use of a COX Inhibitor Screening Assay Kit (product of Cayman Chemical Company, Catalog Nos. 560101 and 560121).
(§3) Before starting the measurement, reaction buffer, heme, arachidonic acid, SnCl2, EIA buffer, washing buffer, prostaglandin (PG) screening EIA standard, PG screening acetylcholine esterase (AchE), tracer (chromogenic enzyme […] conjugate), and PG screening EIA antiserum were prepared ready for use.
(§4) (1) Production of PGF2α in the presence of COX-1 or COX-2
(§5) A reaction mixture containing the compound of the Examples (50 μM) and COX-1 or COX-2 was allowed to stand at 37° C. for 10 minutes. Arachidonic acid ([…]) was added thereto, and the resultant mixture was further allowed to stand at 37° C. for 2 minutes. 1N-Hydrochloric acid (50 μL) was added to the reaction mixture, to thereby stop the reaction. SnCl2 solution (100 μL) was added thereto, and the resultant mixture was allowed to stand at room temperature for 5 minutes.
(§6) (2) Quantitative Determination of PGF2α using ELISA
(§7) Antiserum (rabbit anti-PGF2α antibody, 50 μL) was added to the wells of 96 well plate that had been coated with mouse anti-rabbit IgG. A solution of PGF2α-containing mixture obtained above (2000-fold diluted, 50 μL) and AchE tracer (50 μL) were added to the well in this order, and the mixture was allowed to stand at room temperature for 18 hours. The wells were washed 5 times with the washing buffer to remove an excessive AchE tracer, and Ellman reagent (200 μL) was added. After leaving the plate in a dark room for 60 minutes, absorbance was measured at 405 nm.
(§8) (3) Calculation of Inhibitory Activity of the Compound of the Examples
(§9) A calibration curve was obtained by use of the PG screening EIA standard, and the production amount of PGF2α was determined from the absorbance above. Percent inhibition against COX-1 or COX-2 at 50 μM of the compound of the Examples was calculated.

Cyclooxygenase-2 (COX-2) = target: T2, Cyclooxygenase-2 (COX-2) (Homo sapiens, UniProt P35354); assay: COX Inhibitor Screening Assay Kit, COX-2; format: biochemical; settings: 50 μM compound; read-out: Inhibitory effect against COX-2 at 50 μM (% inhibition)
T2 construct: purchased Cayman Chemical Company 560121
T2 sequence (P35354 18-604): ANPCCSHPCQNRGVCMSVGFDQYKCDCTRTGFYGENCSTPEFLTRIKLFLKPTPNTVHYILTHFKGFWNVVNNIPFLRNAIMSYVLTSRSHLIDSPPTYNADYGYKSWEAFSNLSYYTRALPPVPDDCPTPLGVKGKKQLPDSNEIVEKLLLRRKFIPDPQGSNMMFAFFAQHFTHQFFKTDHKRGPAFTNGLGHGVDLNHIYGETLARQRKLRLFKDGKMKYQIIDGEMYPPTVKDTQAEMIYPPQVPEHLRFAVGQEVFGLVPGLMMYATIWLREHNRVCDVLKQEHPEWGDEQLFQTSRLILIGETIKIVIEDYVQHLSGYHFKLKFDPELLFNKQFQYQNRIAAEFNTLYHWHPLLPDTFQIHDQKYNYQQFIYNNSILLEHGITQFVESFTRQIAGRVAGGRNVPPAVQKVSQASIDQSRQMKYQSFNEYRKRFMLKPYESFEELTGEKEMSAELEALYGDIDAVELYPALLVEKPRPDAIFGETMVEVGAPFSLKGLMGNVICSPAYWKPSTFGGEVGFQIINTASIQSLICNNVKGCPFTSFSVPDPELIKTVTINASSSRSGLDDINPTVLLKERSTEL
Method: as §1, §2, §3, §4, §5, §6, §7, §8, §9

COX = settings: background art; cited from earlier work
[2] = tested on: collagen-induced platelet aggregation; settings: cited from earlier work

SMILES	IC50 [1] [nM]	inhibition at 50 µM (Cyclooxygenase-1 (COX-1)) [%]	inhibition at 50 µM (Cyclooxygenase-2 (COX-2)) [%]	other results
Cc1ccc(-n2cc(C(=O)N3CCN(C)C(=O)C3)nc2-c2ccc(C)nc2)cc1 [Example 32, 1-[1-(4-Methylphenyl)-2-(6-methyl-3-pyridyl)-1H-imidazole-4-carbonyl]-4-methyl-3-oxopiperazine]	410	5.6	-2.2	
COc1ccc(-c2nc(C(=O)N3CCN(C)CC3)cn2-c2ccc(F)cc2)cn1 [Example 6, 1-[1-(4-Fluorophenyl)-2-(6-methoxy-3-pyridyl)-1H-imidazole-4-carbonyl]-4-methylpiperazine]	330	28.4	23.4	
COc1ccc(-n2nc(C(=O)N3CCC(F)(F)CC3)nc2-c2ccc(C)cn2)cn1 [Example 74, 1-[1-(6-Methoxy-3-pyridyl)-5-(5-methyl-2-pyridyl)-1H-1,2,4-triazole-3-carbonyl]-4,4-difluoropiperidine]	21	46.9		
COc1ccc(-c2nc(C(=O)N3CCC(OC)CC3)cn2-c2ccccn2)cn1 [Example 65, 1-[2-(6-Methoxy-3-pyridyl)-1-(2-pyridyl)-1H-imidazole-4-carbonyl]-4-methoxypiperidine]	120			
COc1ccc(-n2nc(C(=O)N3CCC(F)(F)CC3)nc2-c2ccc(F)cn2)cn1 [Example 71, 1-[5-(5-Fluoro-2-pyridyl)-1-(6-methoxy-3-pyridyl)-1H-1,2,4-triazole-3-carbonyl]-4,4-difluoropiperidine]	190	35.2		
COc1ccc(-c2nc(C(=O)N3CCC[C@@H](F)C3)cn2-c2ccccn2)cn1 [Example 72, (3R)-1-[2-(6-Methoxy-3-pyridyl)-1-(2-pyridyl)-1H-imidazole-4-carbonyl]-3-fluoropiperidine]	110	39		
COc1ccc(-c2nc(C(=O)N3CCC(F)CC3)cn2-c2ccccn2)cn1 [Example 64, 1-[2-(6-Methoxy-3-pyridyl)-1-(2-pyridyl)-1H-imidazole-4-carbonyl]-4-fluoropiperidine]	60	-1.4	4.5	
COc1ccc(-c2nc(C(=O)N3CCN(C)CC3)sc2-c2ccc(OC)cc2)cc1 [thiazole derivative (C)]				COX inhibiting effect (COX): inhibits COX
COc1ccc(-n2nc(C(=O)N3CCN(C)CC3)nc2-c2ccc(C)cc2)cn1 [Example 37, 1-[1-(6-Methoxy-3-pyridyl)-5-(4-methylphenyl)-1H-1,2,4-triazole-3-carbonyl]-4-methylpiperazine hydrochloride]	270	-3.2	-0.8	
COc1ccc(-n2nc(C(=O)N3CCN(C)CC3)nc2-c2ccccn2)cn1 [Example 66, 1-[1-(6-Methoxy-3-pyridyl)-5-(2-pyridyl)-1H-1,2,4-triazole-3-carbonyl]-4-methylpiperazine]	700			
COc1ccc(-n2nc(C(=O)N3CCC(F)(F)CC3)nc2-c2ccc(C#N)cn2)cn1 [Example 67, 1-[5-(5-Cyano-2-pyridyl)-1-(6-methoxy-3-pyridyl)-1H-1,2,4-triazole-3-carbonyl]-4,4-difluoropiperidine]	220			
CN1CCN(C(=O)c2nc(-c3ccccc3)c(-c3ccccc3)o2)CC1 [Example 25, 1-(4,5-diphenyloxazole-2-carbonyl)-4-methylpiperazine]	710	3.1	-8.7	
COc1ccc(-c2nc(C(=O)N3CCN(C)CC3)nn2-c2ccc(C)cc2)cn1 [Example 38, 1-[5-(6-Methoxy-3-pyridyl)-1-(4-methylphenyl)-1H-1,2,4-triazole-3-carbonyl]-4-methylpiperazine hydrochloride]	320	3.5	10.7	
CS(=O)(=O)c1ccc(-c2cc(C#N)nn2-c2ccc(F)cc2)cc1 [Compound (A)]				IC50 ([2]; prior-art compound, background art, read-out: IC50 value against collagen-induced platelet aggregation): 5300 nM
COc1ccc(-c2nc(C(=O)N3CCC(F)(F)CC3)cn2-c2ccccn2)cn1 [Example 63, 1-[2-(6-Methoxy-3-pyridyl)-1-(2-pyridyl)-1H-imidazole-4-carbonyl]-4,4-difluoropiperidine]	20	3.4	7.5	
COc1ccc(-c2cc(C(F)F)nn2-c2ccc(S(N)(=O)=O)cc2)cc1F [compound (B)]				platelet aggregation inhibitory activity ([2]; compared with inhibitory activity against COX-2): not so strong compared with its inhibitory activity against COX-2
